Laboratory results from patent US10160705B2, “Class of HDAC inhibitors expands the renal progenitor cells population and improves the rate of recovery from acute kidney injury” (University of Pittsburgh—Of the Commonwealth System of …, priority 2011, dated 2018).
Like-named read-outs stand apart in the source and are kept apart here.

Key:
[1] = cited from earlier work
zebrafish embryos = assay: Phenotypic screen for edema and survival in zebrafish larvae at 72 hpf; conditions: for phenotype in initial chemical screen: 10 μM, larvae at 72 hpf; for larvae with edemic phenotype / pericardial edema by 72 hpf: 3 μM PTBA; for larvae with edemic phenotype / pericardial edema by 72 hpf / death by 72 hpf: 25 μM PBA, 200 nM TSA; for death by 72 hpf: n=90; for Dead / Edemic 1 (E1) / Edemic 2 (E2) / Edemic 3 (E3) / Wild-type (WT): number of larvae (of 36), 3 μM from 2 hpf, scored at 72 hpf
Protocol: The screen was performed in zebrafish embryos using the National Cancer Institute's Developmental Therapeutics Program (NCI/DTP) Diversity Set I. This library contains 1990 compounds selected by pharmacophore modeling to represent the more than 140,000 small molecules maintained in the NCI/DTP Open Repository. Compounds from the NCI/DTP Diversity Set I were diluted to 10 μM in E3 embryo medium (5 mM NaCl, 0.33 mM CaCl2, 0.33 mM MgSO4, and 0.17 mM KCl) in a final DMSO concentration of 0.5% and arrayed in 96-well plates. Beginning at approximately 2 hpf, embryos were transferred to each well in groups of five using a glass pipette. The plates were incubated at 28.5° C. for 70 hours. Individual wells were then scored for a dominant phenotype, representative of at least four of the five embryos. The primary objective was to identify compounds that caused edema in treated embryos at 72 hpf. Small molecules generating edema were retested once for verification, before obtaining additional compound from the NCI/DTP Open Repository.
PTBA was synthesized as described below. Hydroxyurea and aphidicolin were obtained from Sigma-Aldrich. Groups of 20 to 30 chorionated 2 hpf embryos were arrayed in individual wells of 12-well plates. E3 medium was removed with a glass pipette and replaced with 1.5 ml treatment solutions containing 0.5% DMSO in E3 with or without compound at the reported concentrations. Treatments for all studies were initiated at 2 hpf, except for the temporal studies (FIG. 6) and the HUA studies (FIG. 11). HUA studies were performed as described previously (Zhang, L., et al. Cell cycle progression is required for zebrafish somite morphogenesis but not segmentation clock function. Development 135, 2065-2070, (2008)), with the following modifications. HUA in 0.5% DMSO was added at early gastrulation (5 hpf) and PTBA was subsequently added at late gastrulation (8 hpf) to allow for penetration of the proliferation inhibitors. All embryos were incubated at 28.5° C. until the required developmental stage.
Following 70 hours of treatment (as described above), edemic phenotypes in 72 hpf larvae were scored using a phenotype-based classification system. Wild type: no visible edema or developmental delay. […] Significant effects (p<0.05) on survival were determined by two-tailed Fisher's exact test in comparison with the 0 μM PTBA treatment group.
PTBA and methyl-4-(phenylthio)butanoate were synthesized as described above. 4-(Naphthalen-2-ylthio)butanoic acid (NSC2733) and 3-(phenylthio)benzoic acid (NSC113994), were obtained from the NCI/DTP Open Repository. APHA compound 8, Apicidin, butanoic acid, PBA, 4-phenoxybutanoic acid, 5-phenylpentanoic acid, Scriptaid, TSA, and valproic acid were obtained from Sigma-Aldrich. MS-275 and SAHA were obtained from Cayman Chemical Co. 4-(phenylsulfonyl)butanoic acid was obtained from Matrix Scientific. Tubacin was a gift of Dr. Ralph Mazitschek of the Broad Institute (Cambridge, Mass.). The remaining PTBA analogs were synthesized. Three independent groups of 12 chorionated 2 hpf embryos were arrayed in individual wells of 24-well plates. E3 medium was removed with a glass pipette and replaced with 800 μl treatment solutions containing 0.5% DMSO in E3 with or without compound at the reported concentrations.
Phenotypic screening of PTBA analogs was performed identically to the concentration-response experiments detailed above. Embryos were treated with each PTBA analog from 2 to 72 hpf as described above.

kidney field = assay: In situ hybridization for kidney markers (pax2a, pax8, cdh17, wt1a, slc4a4, slcl2a1); assay type: in vivo, zebrafish; conditions: in situ hybridization, data not shown
Protocol: (§1) PTBA was synthesized as described below. Hydroxyurea and aphidicolin were obtained from Sigma-Aldrich.
(§2) In situ hybridization and immunocytochemistry: In situ hybridization was performed as previously described with some modifications.142 Hybridization temperature was 65° C. Embryos were blocked in 2% blocking reagent (Roche) with 5% sheep serum in MAB (100 mM maleic acid and 150 mM NaCl [pH 7.5]). Whole-mount immunocytochemistry with 1:25 mouse anti-α6F antibody (Developmental Studies Hybridoma Bank) and 1:100 Cy3 secondary antibody (Jackson ImmunoResearch) was performed as described previously.108 Embryos were embedded in JB-4 for sectioning per the manufacturer's instructions (Polysciences), sectioned at 5 μm, and mounted with Cytoseal 60 (Richard-Allan Scientific).

histone H4 = assay: Histone H4 hyperacetylation Western blot in treated embryos; assay type: in vivo, zebrafish; conditions: 24 hpf embryos, 6 hours; 3 μM PTBA, 25 μM PBA, 200 nM TSA
Protocol: It was next determined whether the HDACi function of PTBA was quantifiable in vivo. 24 hpf embryos were treated with 3 μM PTBA, 25 μM PBA, or 200 nM TSA for 6 hours. Protein extracts were prepared and immunoblotted with an anti-hyperacetylated histone H4 antibody. […] Furthermore, increasing the compound concentration caused a corresponding increase in hyperacetylation (FIG. 21).
SDS-PAGE and Western blotting were performed as described previously with some modifications (Noel, E. S. et al. Organ-specific requirements for Hdac1 in liver and pancreas formation. Dev Biol 322, 237-250, (2008)). Proteins were separated on 18% SDS-PAGE gels. Membranes were incubated at 4° C. overnight with 1:1000 anti-hyperacetylated histone H4 antibody (06-946, Millipore) or 1:1000 anti-α-tubulin antibody (Sigma-Aldrich) in PBT containing 5% nonfat milk.

renal progenitor cells = assay: In situ hybridization for lhx1a expression in 10-somite embryos (renal progenitor cell expansion); assay type: in vivo; conditions: for concentration producing an expansion of lhx1a expression consistent with 3 μM PTBA: concentration-response
In short: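 Zebrafish embryos treated with compound, then colorimetric whole-mount in situ hybridization (65° C) for lhx1a mRNA at 10 somites. Embryos with expanded kidney field counted manually as percent of total. EC50 taken as 50% point of percent-expansion trendline; compounds also classed effective, partial or ineffective versus PTBA at matched concentration.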

human HDACs = assay: Fluorescence histone deacetylation assay with HeLa cell nuclear extract; assay type: biochemical; conditions: for HDAC activity elicited by 10 μg HeLa extract, percent of the control value: 5 mM compound
Protocol: To evaluate this in vitro, the deacetylation of a fluorescent peptide substrate was measured in the presence of human HDACs.
In vitro HDAC activity assays were performed using a fluorescence HDAC assay kit (Active Motif) according to the manufacturer's instructions. For maintaining compound solubility at 5 mM, the final DMSO concentration in all assay wells was increased to 5%. Fluorescence was detected using an M5 Plate Reader ([…])

HDAC = conditions: 5 mM; cited from earlier work
[2] = system: mesodermal markers myod1, fli1a, and ntla; assay: In situ hybridization for the mesodermal markers myod1, fli1a and ntla in 10-somite embryos; assay type: in vivo, zebrafish
Protocol: as §1, §2

CD1 mice = assay: Folic acid-induced AKI in CD1 mice; assay type: in vivo, mouse; conditions: daily IP from 24 hrs after folic acid, 15 days
Protocol: FIG. 42 are photomicrographs showing the results of an AKI model using folic acid-induced injury. Folic acid is administered to CD1 mice (n=6/group) intraperitoneally (IP) at […] in 0.3M NaHCO3. Compound UPHD-00022 was injected daily IP at […] in 30% PEG300 vehicle starting 24 hrs after folic acid treatment. Kidney tissue was stained using Trichrome and Sirus Red stained after 15 days. Blue in trichrome and the red in sirus red indicates fibrotic (scar) tissue.

[3] = 3 μM from 2 hpf, 10-somite embryos
[4] = 100 nM from 2 hpf, 10-somite embryos
[5] = 200 nM from 2 hpf, 10-somite embryos

In the case of `O=C(O)CCCc1ccccc1` [Buphenyl], the “half-life (t1/2)” value ([1]; following administration) is given as ~1 h and the bioavailability ([1]; taken orally) is given as “about 80%”.

With `COc1ccc(/C=C(\C#N)C(N)=O)c(OC)c1` [NSC134664] the “phenotype in initial chemical screen” value (zebrafish embryos) was “pericardial edema” and the “size of the kidney field” value (kidney field) was “did not affect the size of the kidney field”.

With `N=C(N)c1ccc(N=Nc2c(O)ccc3c2[nH]c2ccccc23)cc1` [NSC357777] the “phenotype in initial chemical screen” value (zebrafish embryos) was “pericardial edema” and the “size of the kidney field” value (kidney field) was “did not affect the size of the kidney field”.

In the case of `O=C(O)CCCc1ccccc1` [PBA, 4-phenylbutanoic acid, reference compound], the “histone H4 hyperacetylation” value (histone H4) is reported as “Histone H4 hyperacetylation was observed”, the “Lhx1a expansion caused by analog treatment, 3 μM” value (renal progenitor cells; [3]) is reported as “−” and the “concentration producing an expansion of lhx1a expression consistent with 3 μM PTBA” value (renal progenitor cells; 10-somite embryos) is reported as 25 µM. For the same compound, the “larvae with edemic phenotype / pericardial edema by 72 hpf” value (zebrafish embryos) was 23%, the “death by 72 hpf” value (zebrafish embryos) was 8% and the Dead (zebrafish embryos) was 0. The “Edemic 1 (E1)” value (zebrafish embryos) was 0, the “Edemic 2 (E2)” value (zebrafish embryos) was 0 and the “Edemic 3 (E3)” value (zebrafish embryos) was 0. For the same compound, the “Wild-type (WT)” value (zebrafish embryos) was 36, the “HDAC activity elicited by 10 μg HeLa extract, percent of the control value” (human HDACs) was 30% and the “HDAC activity, percent of the control value” (HDAC) was 19%.

With `O=C(O)CCCS(=O)(=O)c1ccccc1` [PSOBA, 4-(phenylsulfonyl)butanoic acid, reference compound] the “Lhx1a expansion caused by analog treatment, 3 μM” value (renal progenitor cells; [3]) was “−”, the “lhx1a expansion, percent of treated embryos” value (“lhx1a expansion, percent” below) (renal progenitor cells; [3]) was “no ability to expand renal progenitor cells” and the Dead (zebrafish embryos) was 0. The “Edemic 1 (E1)” value (zebrafish embryos) was 0, the “Edemic 2 (E2)” value (zebrafish embryos) was 0 and the “Edemic 3 (E3)” value (zebrafish embryos) was 0. For the same compound, the “Wild-type (WT)” value (zebrafish embryos) was 36 and the “HDAC activity elicited by 10 μg HeLa extract, percent of the control value” (human HDACs) was 70%.

With `CC(/C=C/C(=O)NO)=C\[C@@H](C)C(=O)c1ccc(N(C)C)cc1` [TSA, trichostatin A, reference compound] the “normal ntla expression disrupted, percent of treated embryos” value ([2]; 200 nM) was 86%, the “myod1 expression decreased, percent of treated embryos” value ([2]; 3 μM PTBA (slightly decreased), 25 μM PBA, 200 nM TSA) was 100% and the “fli1a expression decreased, percent of treated embryos” value ([2]; 25 μM PBA, 200 nM TSA) was 95%. The “histone H4 hyperacetylation” value (histone H4) was “Histone H4 hyperacetylation was observed”, the “Lhx1a expansion caused by analog treatment, 100 nM” value (renal progenitor cells; [4]) was “+” and the “lhx1a expansion, percent” value (renal progenitor cells; [4]) was 97%. The “Lhx1a expansion caused by analog treatment, 200 nM” value (renal progenitor cells; [5]) was “+”, the “lhx1a expansion, percent” value (renal progenitor cells; [5]) was 100% and the “lethality before reaching 10 somites” value (renal progenitor cells; 400 nM) was “died before reaching 10 somites”. The treated embryos killed (renal progenitor cells; 800 nM) was “lethal”, the “lethality before the 10-somite stage” value (renal progenitor cells; 1.5 μM) was “lethal” and the “lethality before the 10-somite stage” value (renal progenitor cells; 3 μM) was “killed all treated embryos”. The “concentration producing an expansion of lhx1a expression consistent with 3 μM PTBA” value (renal progenitor cells; 10-somite embryos) was 0.2 µM, the “treated 72 hpf larvae killed” value (zebrafish embryos; 300 nM) was “greater than 90%” and the “larvae with edemic phenotype / pericardial edema by 72 hpf” value (zebrafish embryos) was 100%. For the same compound, the “death by 72 hpf” value (zebrafish embryos) was 61%, the Dead (zebrafish embryos) was 36 and the “Edemic 1 (E1)” value (zebrafish embryos) was 0. The “Edemic 2 (E2)” value (zebrafish embryos) was 0, the “Edemic 3 (E3)” value (zebrafish embryos) was 0 and the “Wild-type (WT)” value (zebrafish embryos) was 0. For the same compound, the HDAC activity (human HDACs; 1 μM TSA, all input levels of nuclear extract) was “completely blocked activity”.

For `COC(=O)CCCSc1ccc(OC)cc1` [UPHD-00022, methyl 4-[(4-methoxy-phenyl)sulfanyl]butanoate], the “Lhx1a expansion caused by analog treatment, 400 nM” value (renal progenitor cells; 400 nM from 2 hpf, 10-somite embryos) was “+/−”, the “Lhx1a expansion caused by analog treatment, 800 nM” value (renal progenitor cells; 800 nM from 2 hpf, 10-somite embryos) was “+” and the “Lhx1a expansion caused by analog treatment, 1.5 μM” value (renal progenitor cells; 1.5 μM from 2 hpf, 10-somite embryos) was “+”. For the same compound, the “Lhx1a expansion caused by analog treatment, 3 μM” value (renal progenitor cells; [3]) was “+”, the responders at 1.5 µM (renal progenitor cells; Danio rerio, 1.5 μM from 2 hpf, 10-somite embryos, read-out: lhx1a expansion, percent of treated embryos) was 91% and the responders at 0.8 µM (renal progenitor cells; Danio rerio, percent of embryos with expanded kidney field, 800 nM, read-out: Expansion of Cells (including repeats* and recounts**) 800 nM) was 39%. For the same compound, the responders at 1.5 µM (renal progenitor cells; Danio rerio, percent of embryos with expanded kidney field, 1.5 μM, read-out: Expansion of Cells (including repeats* and recounts**) 1.5 μM) was 83%, the responders at 3 µM (renal progenitor cells; Danio rerio, percent of embryos with expanded kidney field, 3 μM, read-out: Expansion of Cells (including repeats* and recounts**) 3 μM) was 85% and the responders at 0.4 µM (renal progenitor cells; Danio rerio, read-out: lhx1a expansion, percent of treated embryos, 400 nM from 2 hpf, 10-somite embryos) was 29%. For the same compound, the responders at 0.8 µM (renal progenitor cells; Danio rerio, read-out: lhx1a expansion, percent of treated embryos, 800 nM from 2 hpf, 10-somite embryos) was 57%, the EC50 (renal progenitor cells; Danio rerio, first pass EC50 from percent expansion (Excel trendline), average where several experiments) was 1400 nM and the Dead (zebrafish embryos) was 1. For the same compound, the “Edemic 1 (E1)” value (zebrafish embryos) was 2, the “Edemic 2 (E2)” value (zebrafish embryos) was 24 and the “Edemic 3 (E3)” value (zebrafish embryos) was 9. For the same compound, the “Wild-type (WT)” value (zebrafish embryos) was 0 and the “renal fibrosis (Trichrome and Sirus Red)” value (CD1 mice) was “reduction in fibrosis”.
